Molecules are shown by their SMILES. Read-outs that look alike come from different tables or passages of the source.

For one assay, the target named is T1, SHP2 (full length) (Homo sapiens, UniProt Q06124).
T1 construct: SHP2 (full length, diluted to 100 pM final concentration in reaction buffer, BPS bioscience, US); purchased BPS bioscience, US
T1 sequence (Q06124 1-593): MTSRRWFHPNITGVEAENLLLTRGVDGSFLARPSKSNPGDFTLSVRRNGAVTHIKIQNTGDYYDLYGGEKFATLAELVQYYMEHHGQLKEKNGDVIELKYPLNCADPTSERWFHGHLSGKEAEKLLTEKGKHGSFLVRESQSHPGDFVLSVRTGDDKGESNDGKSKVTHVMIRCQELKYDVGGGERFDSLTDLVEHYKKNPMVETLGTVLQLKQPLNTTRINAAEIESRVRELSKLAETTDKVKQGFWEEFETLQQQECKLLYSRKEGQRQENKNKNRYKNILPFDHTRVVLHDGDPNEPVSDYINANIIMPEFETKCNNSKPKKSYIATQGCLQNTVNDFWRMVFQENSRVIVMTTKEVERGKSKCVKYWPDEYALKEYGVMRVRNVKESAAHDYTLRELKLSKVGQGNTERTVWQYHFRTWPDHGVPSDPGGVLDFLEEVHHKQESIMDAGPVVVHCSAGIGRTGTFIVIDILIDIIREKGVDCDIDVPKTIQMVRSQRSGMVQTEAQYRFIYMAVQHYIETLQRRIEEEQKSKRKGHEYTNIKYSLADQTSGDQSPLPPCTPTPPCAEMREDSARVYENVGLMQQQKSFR
In words: Phosphatase assay (PTPase assay) with DiFMUP substrate. The class given is biochemical. The note with it: SHP2 activated with SHP2 activating peptide; DiFMUP 80 μM, 2 hours; fluorescence; read-out: IC50 (PTPase aS say).

Assay [1] deals with phospho-ERK in MIA PaCa2 or H358 cells. The experiment in a line: Phospho-ERK assay (AlphaLisa). The class given is cell-based. The note with it: MIA PaCa2 or H358 cells, compound incubated 1.5 hours, read-out: IC50 (p-ERK).

Consider `C[C@@H]1OCC2(CCN(c3cnc(Sc4ccc5ncn(CCCN(C)C)c(=O)c5c4Cl)cn3)CC2)[C@@H]1N` [Example 68, 6-((5-((3S,4S)-4-amino-3-methyl-2-oxa-8-azaspiro[4.5]decan-8-yl)pyrazin-2-yl)thio)-5-chloro-3-(3-(dimethylamino)propyl)quinazolin-4(3H)-one], for which the IC50 (usually the midpoint of a concentration-inhibition curve) at SHP2 (full length) lay within 0.003 to 0.1 µM; in assay [1] (1.5 h), 0.045 to 1.5 µM.

Take `C[C@@H]1OCC2(CCN(c3cnc(Sc4ccc5ncn(CC(O)CF)c(=O)c5c4Cl)cn3)CC2)[C@@H]1N` (stereo partly drawn) [Example 76, 6-((5-((3S,4S)-4-amino-3-methyl-2-oxa-8-azaspiro[4.5]decan-8-yl)pyrazin-2-yl)thio)-5-chloro-3-(3-fluoro-2-hydroxypropyl)quinazolin-4(3H)-one]: the values for the IC50 (at SHP2 (full length); in assay [1] (1.5 h)) were 0.003 to 0.1 µM and 0.045 to 1.5 µM, respectively.

For the compound `COCCn1cnc2ccc(Sc3n[nH]c4nc(N5CCC6(CC5)CO[C@@H](C)[C@H]6N)cnc34)c(Cl)c2c1=O` [Example 178, 6-((6-((3S,4S)-4-amino-3-methyl-2-oxa-8-azaspiro[4.5]decan-8-yl)-1H-pyrazolo[3,4-b]pyrazin-3-yl)thio)-5-chloro-3-(2-methoxyethyl)quinazolin-4(3H)-one], the IC50 at SHP2 (full length) is under 0.003 µM; in assay [1], under 0.045 µM.

Regarding `CC(N)CN1CCN(c2nc(N)c(Sc3cccc(Cl)c3Cl)c(=O)n2C)CC1` (stereo not shown) [Example 202, 6-amino-2-(4-(2-aminopropyl)piperazin-1-yl)-5-((2,3-dichlorophenyl)thio)-3-methylpyrimidin-4(3H)-one], the IC50 on SHP2 (full length) was over 0.1 µM; in assay [1] (1.5 h), over 1.5 µM.

In the case of `C[C@@H]1OCC2(CCN(c3cnc(Sc4ccc5nc[nH]c(=O)c5c4Cl)cn3)CC2)[C@@H]1N` [Example 5, 6-((5-((3S,4S)-4-amino-3-methyl-2-oxa-8-azaspiro[4.5]decan-8-yl)pyrazin-2-yl)thio)-5-chloroquinazolin-4(3H)-one], the half-inhibitory concentration (IC50) lay in the range of 0.003 to 0.1 µM on SHP2 (full length) and 0.045 to 1.5 µM in assay [1] (1.5 h).

Take `CC(C)(O)Cn1cnc2ccc(Sc3cnc(N4CCC5(CC4)Cc4ncsc4[C@@H]5N)cn3)c(Cl)c2c1=O` [Example 146]: the values for the IC50 (at SHP2 (full length); in assay [1] (1.5 h)) were 0.003 to 0.1 µM and 0.045 to 1.5 µM, respectively.

For `COCCn1cnc2ccc(Sc3cnc(N4CCC5(CC4)Cc4ccccc4[C@H]5N)cn3)c(Cl)c2c1=O` [Example 84, (S)-6-((5-(1-amino-1,3-dihydrospiro(indene-2,4′-piperidin]-1′-yl)pyrazin-2-yl)thio)-5-chloro-3-(2-methoxyethyl)quinazolin-4(3H)-one], the IC50 at SHP2 (full length) was under 0.003 µM; in assay [1] it was under 0.045 µM.

Turning to `C[C@@H]1OCC2(CCN(c3cnc(Sc4ccc5ncn(CC6(O)CCOCC6)c(=O)c5c4Cl)cn3)CC2)[C@@H]1N` [Example 83, 6-((5-((3S,4S)-4-amino-3-methyl-2-oxa-8-azaspiro[4.5]decan-8-yl)pyrazin-2-yl)thio)-5-chloro-3-((4-hydroxytetrahydro-2H-pyran-4-yl)methyl)quinazolin-4(3H)-one], the 50% inhibitory concentration (IC50) was under 0.003 µM on SHP2 (full length) and under 0.045 µM in assay [1] (1.5 h).

For the compound `N[C@@H]1c2cccnc2CC12CCN(c1cnc(Sc3ccc4ncn(CC5(F)COC5)c(=O)c4c3Cl)cn1)CC2` [Example 140, (S)-6-((5-(5-amino-5,7-dihydrospiro[yclopenta[b]pyridine-6,4′-piperidin]-1′-yl)pyrazin-2-yl)thio)-5-chloro-3-((3-fluorooxetan-3-yl)methyl)quinazolin-4(3H)-one], the IC50 was under 0.003 µM on SHP2 (full length) and under 0.045 µM in assay [1] (1.5 h).

For `COC(C)Cn1cnc2ccc(Sc3ncc(N4CCC5(CC4)Cc4scnc4[C@H]5N)nc3N)c(Cl)c2c1=O` (stereo partly shown) [Example 177], the half-inhibitory concentration (IC50) at SHP2 (full length) was under 0.003 µM; in assay [1] (1.5 h) it was under 0.045 µM.

`C[C@@H]1OCC2(CCN(c3cnc(Sc4ccc5ncn(CC6(F)CCOCC6)c(=O)c5c4Cl)cn3)CC2)[C@@H]1N` [Example 79, 6-((5-((3S,4S)-4-amino-3-methyl-2-oxa-8-azaspiro[4.5]decan-8-yl)pyrazin-2-yl)thio)-5-chloro-3-((4-fluorotetrahydro-2H-pyran-4-yl)methyl)quinazolin-4(3H)-one]: the IC50 at SHP2 (full length) is under 0.003 µM; in assay [1] (1.5 h), under 0.045 µM.

Take `C[C@@H]1OCC2(CCN(c3cnc(Sc4ccc5c(c4Cl)C(=O)N(Cc4ccccc4)CC5)cn3)CC2)[C@@H]1N` [Example 85, 7-((5-((3S,4S)-4-amino-3-methyl-2-oxa-8-azaspiro[4.5]decan-8-yl)pyrazin-2-yl)thio)-2-benzyl-8-chloro-3,4-dihydroisoquinolin-1(2H)-one]: the IC50 on SHP2 (full length) was 0.003 to 0.1 µM; in assay [1] (1.5 h) it was over 1.5 µM.

Turning to `COCCn1cnc2ccc(Sc3cnc(N4CCC5(CC4)Cc4scnc4[C@H]5N)c(CO)n3)c(Cl)c2c1=O` [Example 170, (S)-6-((5-(4-amino-4,6-dihydrospiro[yclopenta[d]thiazole-5,4′-piperidin]-1′-yl)-6-(hydroxymethyl)pyrazin-2-yl)thio)-5-chloro-3-(2-methoxyethyl)quinazolin-4(3H)-one], the IC50 is under 0.003 µM on SHP2 (full length) and under 0.045 µM in assay [1] (1.5 h).

Consider `COCCn1cnc2ccc(Sc3ncc(N4CCC5(CC4)Cc4scnc4[C@H]5N)nc3N)c(Cl)c2c1=O` [Example 167, (S)-6-((3-amino-5-(4-amino-4,6-dihydrospiro[cyclopenta[d]thiazole-5,4′-piperidin]-1′-yl)pyrazin-2-yl)thio)-5-chloro-3-(2-methoxyethyl)quinazolin-4(3H)-one], for which the IC50 on SHP2 (full length) was under 0.003 µM; in assay [1] (1.5 h) it was 0.045 to 1.5 µM.

Regarding `N[C@@H]1c2cccnc2CC12CCN(c1cnc(Sc3ccc4ncn(Cc5ccccc5)c(=O)c4c3Cl)cn1)CC2` [Example 102, (S)-6-((5-(5-amino-5,7-dihydrospiro[yclopenta[b]pyridine-6,4′-piperidin]-1′-yl)pyrazin-2-yl)thio)-3-benzyl-5-chloroquinazolin-4(3H)-one], the IC50 at SHP2 (full length) was under 0.003 µM; in assay [1] (1.5 h), under 0.045 µM.

As to `C[C@@H]1OCC2(CCN(c3cnc(Sc4ccc5ncn(CCN(C)S(C)(=O)=O)c(=O)c5c4Cl)cn3)CC2)[C@@H]1N` [Example 123, N-(2-(6-((5-((3S,4S)-4-amino-3-methyl-2-oxa-8-azaspiro[4,5]decan-8-yl)pyrazin-2-yl)thio)-5-chloro-4-oxoquinazolin-3(4H)-yl]ethyl)-N-methylmethanesulfonamide], the IC50 is under 0.003 µM on SHP2 (full length) and under 0.045 µM in assay [1] (1.5 h).

In the case of `C[C@@H]1OCC2(CCN(c3cnc(Sc4ccc5ncn(CCC(F)(F)F)c(=O)c5c4Cl)cn3)CC2)[C@@H]1N` [Example 113], the IC50 at SHP2 (full length) was under 0.003 µM; in assay [1] (1.5 h), under 0.045 µM.

In the case of `C[C@@H]1OCC2(CCN(c3cnc(Sc4ccc5ncn(Cc6cccc(F)c6)c(=O)c5c4Cl)cn3)CC2)[C@@H]1N` [Example 33, 6-((5-((3S,4S)-4-amino-3-methyl-2-oxa-8-azaspiro[4.5]decan-8-yl)pyrazin-2-yl)thio)-5-chloro-3-(3-fluorobenzyl)quinazolin-4(3H)-one], the IC50 on SHP2 (full length) was under 0.003 µM; in assay [1] (1.5 h), 0.045 to 1.5 µM.

With `N[C@@H]1c2cccnc2CC12CCN(c1cnc(Sc3ccc4ncn(CCCF)c(=O)c4c3Cl)cn1)CC2` [Example 110], the IC50 was under 0.003 µM on SHP2 (full length) and under 0.045 µM in assay [1] (1.5 h).

Consider `C[C@@H]1OCC2(CCN(c3cnc(Sc4ccc5nc(Oc6ccccc6)[nH]c5c4Cl)cn3)CC2)[C@@H]1N` [Example 125], for which the IC50 was under 0.003 µM at SHP2 (full length) and under 0.045 µM in assay [1].

These data come from US12029739B2, “SHP2 inhibitor and use thereof” (KANAPH THERAPEUTICS INC., priority 2021, dated 2024).
